Test results: US7560484B2 (priority 2000, dated 2009)

How the values were obtained:
[1] = tested on: influenza HA vaccine (influenza virus A/PR/8/34); parameters: species or system BALB/c mice; conditions: mouse, in vivo, po
[2] = tested on: pertussis-diphtheria-tetanus combined vaccine; parameters: species or system mice; conditions: mouse, in vivo, po
[3] = tested on: measles-rubella vaccine; format: in vivo, mice; conditions: blood; vaccine nasal twice at 3-week intervals; adjuvant oral before and after first inoculation
[4] = tested on: Mycoplasma; format: in vivo, mice
[5] = tested on: influenza HA vaccine; conditions: mouse, in vivo
[6] = tested on: rotavirus vaccine; format: in vivo, mice; conditions: blood

Q: What does the source list for `CCCCC[C@H](O)[C@H](O)/C=C/[C@H](O)CCCCCCCC(=O)O` [9R,12R,13S-trihydroxy-10E-octadecenoic acid]?
A: titer of anti-influenza virus IgA antibody in nasal irrigation liquids [1]: strongly enhanced; titer of anti-influenza virus IgG1 antibody in nasal irrigation liquids [1]: strongly enhanced

Q: Which results are given for `CCCCC[C@H](O)[C@H](O)/C=C/[C@@H](O)CCCCCCCC(=O)O` [9S,12R,13S-trihydroxy-10E-octadecenoic acid]?
A: titer of anti-influenza virus IgA antibody in nasal irrigation liquids [1]: strongly enhanced; titer of anti-influenza virus IgG1 antibody in nasal irrigation liquids [1]: strongly enhanced

Q: Which “titer of anti-influenza virus IgA antibody in nasal irrigation liquids” value [1] does the source give for `CCCCC[C@H](O)[C@@H](O)/C=C/[C@@H](O)CCCCCCCC(=O)O` [9S,12S,13S-trihydroxy-10E-octadecenoic acid] here?
A: The value was “strongly enhanced”.

Q: And the “titer of anti-influenza virus IgA antibody in the sera” value [1]?
A: Its value is “significantly increased”.

Q: What about the “titer of anti-influenza virus IgG1 antibody in nasal irrigation liquids” value [1] of the same molecule?
A: The value was “strongly enhanced”.

Q: What about the “titer of anti-influenza virus IgG1 antibody in the sera” value [1] of the same molecule?
A: The value was “significantly increased”.

Q: And the “level of anti-DT-IgA antibody in the nasal irrigation liquid” value [2]?
A: The value was 11 ELISA units.

Q: And the “level of anti-PT-IgA antibody in the nasal irrigation liquid” value [2]?
A: The value was 14 ELISA units.

Q: What about the “level of anti-TT-IgA antibody in the nasal irrigation liquid” value [2] of the same molecule?
A: The value was 11 ELISA units.

Q: And the “level of anti-diphtheria toxoid (DT)-IgG antibody in the blood” value [2]?
A: Its value is 70 ELISA units.

Q: And the “level of anti-pertussis toxin (PT)-IgG antibody in the blood” value [2]?
A: Its value is 442 ELISA units.

Q: What about the “level of anti-tetanus toxoid (TT)-IgG antibody in the blood” value [2] of the same molecule?
A: The value was 75 ELISA units.

Q: And the “ELISA titer of antibody produced for measles” value [3]?
A: The value was 0.30.

Q: What about the “ELISA titer of antibody produced for rubella” value [3] of the same molecule?
A: The value was 0.29.

Q: And the “mice with lesions associated with Mycoplasma infection” value ([4]; mouse, in vivo, po)?
A: The value was 3 of 10.

Q: What about the “average number of lesions” value ([4]; vaccine intranasal three times at 2-week intervals, adjuvant oral before and after first inoculation) of the same molecule?
A: The value was 178.

Q: And the “titer of anti-influenza vaccine IgE antibody in the bronchoalveolar irrigation liquid” value [5]?
A: The value was “significantly decreased”.

Q: Which results are given for `CCCCC[C@H](O)[C@@H](O)/C=C/[C@@H](O)CCCCCCCC(=O)OC` [methyl ester derivative, methyl 9S,12S,13S-trihydroxy-10E-octadecenoate]?
A: ELISA titer of antibody produced, vaccine inoculated orally ([6]; rotavirus vaccine inoculated orally): 0.27; ELISA titer of antibody produced, nasal vaccine drop ([6]; rotavirus vaccine nasal twice at 3-week intervals, adjuvant oral before and after first inoculation): 0.38
